Data reported in ChEMBL document CHEMBL3102753, “7-Azaindole-1-carboxamides as a new class of PARP-1 inhibitors” (Bioorg Med Chem, 2014).

Experiments:
HCC1937 = assay: Antiproliferative activity against BRCA1 gene mutated human HCC1937 cells after 72 hrs by SRB assay; format: functional, cell-based
[1] = target: T1, Poly [ADP-ribose] polymerase 1 (Homo sapiens, UniProt P09874); assay: Inhibition of recombinant human GST-fused PARP-1 expressed in Escherichia coli after 30 mins by fluorescence assay
[2] = Antiproliferative activity against BRCA2 gene mutated human Capan1 cells after 72 hrs by cell counting; conditions: CAPAN-1, 72 h
Mus musculus [3] = assay: Toxicity in human MX1 cells harboring BRCA1 deletion and BRCA2 mutant xenografted SCID mouse assessed as mortality at 100 mg/kg, ip administered every 2 days for 2 weeks measured on day 38 relative to control; format: organism-based; parameters: dose 100 mg/kg, route intraperitoneal; conditions: in vivo
A2780 [4] = assay: Resistant factor, ratio of IC50 for human A2780/DX cells to IC50 for human A2780 cells; format: functional
MX1 [5] = assay: Antitumor activity against human MX1 cells harboring BRCA1 deletion and BRCA2 mutant xenografted in SCID mouse assessed as reduction of tumor volume at 100 mg/kg, ip administered every 2 days for 2 weeks measured on day 38 relative to control; format: functional; parameters: scale not given: the % may be the effect or the level left; conditions: route intraperitoneal
Mus musculus [6] = assay: Toxicity in human MX1 cells harboring BRCA1 deletion and BRCA2 mutant xenografted SCID mouse assessed as reduction of body weight at 100 mg/kg, ip administered every 2 days for 2 weeks measured on day 38 relative to control; format: organism-based; parameters: dose 100 mg/kg, route intraperitoneal; scale not given: the % may be the effect or the level left; conditions: in vivo
[7] = target: T1, Poly [ADP-ribose] polymerase 1; assay: Inhibition of PARP-1 in human HeLa cells assessed as decrease of H2O2-induced PARylation after 3 hrs by fluorescence assay; format: cell-based
[8] = Antiproliferative activity against human A2780/DX cells after 72 hrs by SRB assay; format: functional, cell-based
A2780 [9] = assay: Antiproliferative activity against human A2780 cells after 72 hrs by SRB assay; format: functional, cell-based; conditions: A2780, 72 h
Mus musculus [10] = assay: Toxicity in human MX1 cells harboring BRCA1 deletion and BRCA2 mutant xenografted SCID mouse assessed as reduction of body weight at 167 mg/kg, ip administered every 2 days for 2 weeks measured on day 38 relative to control; format: organism-based; parameters: dose 167 mg/kg, route intraperitoneal; scale not given: the % may be the effect or the level left; conditions: in vivo
Mus musculus [11] = assay: Toxicity in human MX1 cells harboring BRCA1 deletion and BRCA2 mutant xenografted SCID mouse assessed as mortality at 167 mg/kg, ip administered every 2 days for 2 weeks measured on day 38 relative to control; format: organism-based; parameters: dose 167 mg/kg, route intraperitoneal; conditions: in vivo
MX1 [12] = assay: Antitumor activity against human MX1 cells harboring BRCA1 deletion and BRCA2 mutant xenografted in SCID mouse assessed as reduction of tumor volume at 167 mg/kg, ip administered every 2 days for 2 weeks measured on day 38 relative to control; format: functional; parameters: scale not given: the % may be the effect or the level left; conditions: route intraperitoneal
[13] = Antiproliferative activity against BRCA2 gene mutated human Capan1 cells after 72 hrs by SRB assay; format: functional, cell-based; conditions: capan-1
[14] = Homo sapiens, HCC1937, 72 h, read-out: IC50

T1 sequence (P09874 whole entry, the tested form may be a part): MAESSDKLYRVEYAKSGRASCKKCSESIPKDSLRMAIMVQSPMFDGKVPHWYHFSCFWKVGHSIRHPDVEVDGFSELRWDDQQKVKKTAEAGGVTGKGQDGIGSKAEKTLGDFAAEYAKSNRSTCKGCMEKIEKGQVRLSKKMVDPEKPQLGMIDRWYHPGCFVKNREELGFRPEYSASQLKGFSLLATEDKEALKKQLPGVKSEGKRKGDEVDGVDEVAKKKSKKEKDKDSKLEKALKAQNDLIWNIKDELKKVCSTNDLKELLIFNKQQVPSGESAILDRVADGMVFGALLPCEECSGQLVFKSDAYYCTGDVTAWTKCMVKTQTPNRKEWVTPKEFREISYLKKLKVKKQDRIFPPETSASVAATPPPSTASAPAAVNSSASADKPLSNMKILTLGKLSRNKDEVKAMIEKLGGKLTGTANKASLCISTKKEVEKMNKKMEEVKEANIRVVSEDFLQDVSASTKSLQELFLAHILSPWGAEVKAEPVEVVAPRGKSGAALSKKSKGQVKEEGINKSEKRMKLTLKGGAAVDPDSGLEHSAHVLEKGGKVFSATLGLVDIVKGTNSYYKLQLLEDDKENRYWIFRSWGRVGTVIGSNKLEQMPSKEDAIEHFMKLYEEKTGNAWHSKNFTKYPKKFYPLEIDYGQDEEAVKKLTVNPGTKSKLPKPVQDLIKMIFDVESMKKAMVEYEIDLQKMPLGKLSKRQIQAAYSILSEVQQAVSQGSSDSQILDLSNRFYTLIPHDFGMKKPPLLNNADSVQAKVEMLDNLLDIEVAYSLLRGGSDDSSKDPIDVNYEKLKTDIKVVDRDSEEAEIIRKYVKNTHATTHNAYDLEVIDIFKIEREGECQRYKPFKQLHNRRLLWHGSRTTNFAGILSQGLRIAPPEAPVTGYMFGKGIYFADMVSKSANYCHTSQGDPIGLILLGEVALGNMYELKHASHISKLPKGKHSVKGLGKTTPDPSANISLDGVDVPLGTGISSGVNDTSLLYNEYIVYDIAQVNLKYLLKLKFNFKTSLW

| SMILES | IC50 (HCC1937; [14]) [µM] | IC50 [1] [µM] | IC50 [2] [µM] | other results |
| --- | --- | --- | --- | --- |
| NC(=O)n1ccc2cccnc21 | > 200 | 2.5 | > 200 |  |
| COc1ccc(-c2ccc3ccn(C(N)=O)c3n2)cc1 | > 200 | 3.76 | 162 |  |
| NC(=O)n1ccc2ccc(-c3ccc(-c4ccccc4)cc3)nc21 | > 200 | > 5 | 81.8 |  |
| NC(=O)n1ccc2ccc(-c3ccccc3F)nc21 |  | 3 |  |  |
| NC(=O)n1ccc2ccc(-c3ccc(C(=O)N4CCCCC4)cc3)nc21 | 72.3 | 2.9 | 24.4 |  |
| NC(=O)n1ccc2ccc(-c3ccc(CN4CCCCC4)cc3)nc21 | 19.4 | 0.07 | 22 | Activity (Mus musculus [3]): Non-toxic; Ratio IC50 (A2780 [4]): 3.9; Activity (MX1 [5]): 36%; Activity (Mus musculus [6]): 1%; EC50 [7]: 0.4 µM; IC50 [8]: 11.2 µM; IC50 (A2780 [9]): 2.9 µM |
| NC(=O)n1ccc2ccc(N3CCCCC3)nc21 |  | 3 |  |  |
| NC(=O)Cn1ccc2ccc(-c3ccc(CN4CCCC4)cc3)nc21 | 182 | > 5 | 182 |  |
| O=C(c1cc(Cc2n[nH]c(=O)c3ccccc23)ccc1F)N1CCN(C(=O)C2CC2)CC1 [OLAPARIB] |  |  | 6.3 | Activity (Mus musculus [10]): 0%; IC50 (HCC1937; Homo sapiens, HCC1937, 72 h): 10.3 µM; Activity (Mus musculus [11]): Non-toxic; Activity (MX1 [12]): 35%; IC50 [8]: 41.9 µM; IC50 (A2780 [9]): 1 µM |
| C[C@]1(c2nc3c(C(N)=O)cccc3[nH]2)CCCN1 [VELIPARIB] |  |  |  | IC50 (HCC1937; hcc1937, read-out: IC50): 97.2 µM; IC50 [13]: 39.7 µM |

Further lines, with some results ahead:

| IC50 (HCC1937; [14]) [µM] | IC50 [1] [µM] | SMILES | IC50 [2] [µM] | other results |
| --- | --- | --- | --- | --- |
| > 200 | 0.27 | NC(=O)n1ccc2ccc(-c3ccccc3)nc21 | > 200 |  |
| > 200 | 0.88 | CN(C)c1ccc(-c2ccc3ccn(C(N)=O)c3n2)cc1 | > 200 |  |
| > 200 | 0.27 | NC(=O)n1ccc2ccc(-c3ccc(F)cc3)nc21 | 61.1 |  |
|  | 1.12 | NC(=O)n1ccc2ccc(-c3ccc(F)c(C(=O)N4CCN(C(=O)C5CC5)CC4)c3)nc21 |  |  |
| 61.4 | 0.93 | NC(=O)n1ccc2ccc(-c3ccc[nH]3)nc21 | 87.1 |  |
| 17.2 | 2.1 | NC(=O)n1ccc2ccc(-c3ccc(CN4CCOCC4)cc3)nc21 | 15.9 |  |
| 41.2 | 1.56 | CN1CCN(Cc2ccc(-c3ccc4ccn(C(N)=O)c4n3)cc2)CC1 | 54.5 |  |
| 15 | 0.28 | NC(=O)n1ccc2ccc(-c3ccc(CN4CCCC4)cc3)nc21 | 21.7 |  |
| 13.5 | 0.63 | CN(C)Cc1ccc(-c2ccc3ccn(C(N)=O)c3n2)cc1 | 19.7 |  |
| > 200 | 0.22 | NC(=O)n1ccc2ccc(N3CCCC3)nc21 | 83.8 |  |
| 111 | 0.77 | CN1CCN(c2ccc3ccn(C(N)=O)c3n2)CC1 | 138 |  |
